# Measured values reported in patent US6362236B1, “Inhibition of lipoprotein oxidation” (Warner-Lambert Company, priority 1997, dated 2002).
# Legend:
# [1] = test system: HDL-associated paraoxonase; test: HDL-associated paraoxonase activity after CuSO4-induced HDL oxidation; format: biochemical, human; details: for Paraoxonase Specific Activity: after CuSO4-induced HDL oxidation, before incubation 50±3; for protection of HDL-associated paraoxonase: HDL oxidized with CuSO4, versus HDL oxidized without drug
# Text: . One unit of paraoxonase activity produces 1 nmol of p-nitrophenol per minute.
# [2] = Free radical scavenging capacity (DPPH assay); details: 20 μM; after 300 seconds of incubation
# Method: Free radical scavenging capacity—The free radical scavenging capacities of the drugs were analyzed by the 1,1-diphenyl-2-picryl-hydrazyl (DPPH) assay. Each drug (20 μM) was mixed with 3 mL of 0.1 nmol DPPH/1 (in ethanol). The time course of the change in the optical density at 517 nm was then kinetically monitored.
# LDL [3] = test: LDL oxidation in all oxidative systems studied (CuSO4, AAPH, J-774A.1 macrophages), summary statements; format: biochemical, human; details: for inhibition of lipid peroxidation induced by copper ions, AAPH or J-774A.1 macrophages: pharmacological concentrations, summary over systems; for inhibition of LDL oxidation in all oxidative systems studied (in words): CuSO4, AAPH and J-774A.1 macrophage systems
# VLDL [4] = test: AAPH-induced VLDL oxidation; details: for inhibition of VLDL oxidation (TBARS), AAPH oxidative system: 10 μM compound, 4 hours at 37° C.; for VLDL-associated peroxide content, AAPH system: control VLDL 2169±329
# HDL = test: CuSO4-induced HDL oxidation; details: for CuSO4-Induced HDL Oxidation, MDA / CuSO4-Induced HDL Oxidation, Peroxides: 10 μM drug, 10 μM CuSO4, 4 hours at 37° C.; for CuSO4-Induced HDL Oxidation, MDA: Control 9.1 ± 0.1; for CuSO4-Induced HDL Oxidation, Peroxides: Control 122 ± 14; for inhibition of HDL oxidation in the presence of CuSO4: 10 μM CuSO4
# VLDL [5] = test: Copper ion (CuSO4)-induced VLDL oxidation; details: for inhibition of VLDL oxidation (TBARS), copper ion oxidative system: 10 μM compound, 4 hours at 37° C.; for VLDL-associated peroxide content, CuSO4 system: control VLDL 1818±333
# LDL [6] = test: Copper ion (CuSO4)-induced LDL oxidation; format: biochemical, human; details: for inhibition of LDL oxidation measured by the TBARS assay, CuSO4 system: 10 μM compound, 10 μM CuSO4, 4 hours at 37° C., LDL 100 μg of protein/mL; for LDL-associated peroxides content, CuSO4 system: control LDL 710±51
# LDL [7] = test: AAPH (free radical generator)-induced LDL oxidation; format: biochemical, human; details: for inhibition of LDL oxidation measured by the TBARS assay, AAPH system: 10 μM compound, 5 mM AAPH, 4 hours at 37° C.; for LDL-associated peroxides content, AAPH system: control LDL 990±89
# VLDL [8] = test: Lipoprotein electrophoresis of VLDL after copper ion-induced oxidation; format: biochemical, human; details: 10 μM CuSO4
# Method: Lipoprotein electrophoresis—Lipoproteins (100 μg protein/mL) were incubated without or with the drugs followed by oxidation in the presence of 10 μM CuSO4. Then, electrophoresis of the lipoproteins was performed on 1% agarose using a Hydragel-Lipo kit (Sebia, France).
# [9] = test system: J-774 A.1 murine macrophages-like cell line; details: 10 μM compound; J-774 A.1 cells, 2 μM CuSO4, 20 hours
# Method: The macrophages were grown in Dulbecco's Modified Eagles Medium (DMEM) supplemented with 5% heat inactivated fetal calf serum (FCS). For the lipoprotein oxidation studies, cells (1×10^6/35 mm dish) were incubated with LDL (100 μg of protein/mL) in RPMI medium (without phenol red) in the presence of 2 μM CuSO4 for 20 hours at 37° C. in the incubator. Control LDL was also incubated in a cell-free system under the same conditions. At the end of the incubation period, the extent of LDL oxidation was measured in the medium (after centrifugation at 1000×g for 10 minutes) by the TBARS assay. Cell-mediated oxidation of LDL was calculated by subtracting the values obtained in the cell-free system from those obtained with the cells.
# [10] = Method: For the lipid peroxidation experiments, 500 μL of membrane vesicles were enriched with dilinoleoyl phosphatidylcholine (DLPC) at a concentration of 1.0 mg DLPC/mL. […] The extent of lipid peroxidation in each sample was determined by a spectrophotometric assay for lipid peroxides in serum lipoproteins using a color reagent known as CHOD-iodide (Merck, Darmstadt, FRG, Merck Cat. No. 14106). The color reagent has the following composition:
# The concentration of triiodide formed was measured spectrophotometrically according to the formula (L=lipoprotein) [formula]
# To each of the withdrawn aliquots of membrane vesicles was added 1.0 mL of the CHOD color reagent, and the sample was incubated in the absence of light for 4 hours. […] Lipid peroxide formation was measured in triplicate and values were expressed as mean±SD. The significance of differences between results from different experimental conditions was tested using the two-tailed student t-test.
Compound,"Paraoxonase Specific Activity ([1]; Table 1, Control 26 ± 2)",reduction in the absorbance at 517 nm (DPPH assay) [2],"inhibition of lipid peroxidation induced by copper ions, AAPH or J-774A.1 macrophages (LDL [3])","inhibition of VLDL oxidation (TBARS), AAPH oxidative system (VLDL [4])","CuSO4-Induced HDL Oxidation, MDA (HDL; Table 1)","CuSO4-Induced HDL Oxidation, Peroxides (HDL; Table 1)","inhibition of VLDL oxidation (TBARS), copper ion oxidative system (VLDL [5])",protection of HDL-associated paraoxonase [1],inhibition of HDL oxidation in the presence of CuSO4 (HDL),"inhibition of LDL oxidation measured by the TBARS assay, CuSO4 system (LDL [6])","LDL-associated peroxides content, CuSO4 system (LDL [6])","inhibition of LDL oxidation measured by the TBARS assay, AAPH system (LDL [7])","LDL-associated peroxides content, AAPH system (LDL [7])",inhibition of LDL oxidation in all oxidative systems studied (in words) (LDL [3]),"inhibition of LDL oxidation measured by the TBARS assay, macrophage system [9]","VLDL-associated peroxide content, AAPH system (VLDL [4])","VLDL-associated peroxide content, CuSO4 system (VLDL [5])",other results
"CC(C)c1c(C(=O)Nc2ccccc2)c(-c2ccccc2)c(-c2ccc(F)cc2)n1CC[C@@H](O)C[C@@H](O)CC(=O)O [atorvastatin, reference compound]",29 ± 4 nmoL/mg HDL Protein/min,not by atorvastatin,not inhibited,no effect,9.6 ± 0.5 nmoL/mg HDL Protein,122 ± 15 nmoL/mg HDL Protein,no effect,–,–,–,–,–,–,–,–,–,–,–
"Cc1ccc(C)c(OCCCC(C)(C)C(=O)O)c1 [gemfibrozil, reference compound]",–,not gemfibrozil itself,not inhibited,–,–,–,–,no effect,no effect,–,–,–,–,–,–,–,–,"lag time for the initiation of LDL oxidation (conjugated dienes formation) (LDL [6]; gemfibrozil experiment, LDL alone 60±9): 60 ± 9 min; Paraoxonase Specific Activity ([1]; Table 2, Control 26 ± 3): 27 ± 5 nmoL/mg HDL Protein/min; CuSO4-Induced HDL Oxidation, MDA (HDL; Table 2): 8.2 ± 0.4 nmoL/mg HDL Protein; CuSO4-Induced HDL Oxidation, Peroxides (HDL; Table 2): 134 ± 13 nmoL/mg HDL Protein"
"CC(C)c1c(C(=O)Nc2ccccc2O)c(-c2ccccc2)c(-c2ccc(F)cc2)n1CC[C@@H](O)C[C@@H](O)CC(=O)O [ortho-hydroxy metabolite, ortho-hydroxy atorvastatin]",40 ± 4 nmoL/mg HDL Protein/min,37%,–,43%,0.2 ± 0.1 nmoL/mg HDL Protein,9 ± 1 nmoL/mg HDL Protein,79%,54%,completely inhibited,73%,192±15 nmol/mg LDL protein,44%,554±32 nmol/mg LDL protein,inhibited,50%,1228±210 nmol VLDL protein,242±22 nmol/mg VLDL protein,"inhibitory effect on copper ion-induced LDL oxidation (TBARS) (LDL [6]; metabolite I of gemfibrozil 3 μM, ortho-hydroxy metabolite of atorvastatin 4 μM, alone or in combination, 10 μM CuSO4, 4 hours): 43%; lipoprotein electrophoretic migration of oxidized VLDL (VLDL [8]): reduce lipoprotein electrophoretic migration"
"CC(C)c1c(C(=O)Nc2ccc(O)cc2)c(-c2ccccc2)c(-c2ccc(F)cc2)n1CC[C@@H](O)C[C@@H](O)CC(=O)O [para-hydroxy metabolite, para-hydroxy atorvastatin]",33 ± 3 nmoL/mg HDL Protein/min,28%,–,16%,4.5 ± 0.3 nmoL/mg HDL Protein,65 ± 9 nmoL/mg HDL Protein,37%,27%,about 50%,60%,284±13 nmol/mg LDL protein,34%,624±38 nmol/mg LDL protein,inhibited,46%,1819±228 nmol VLDL protein,1088±310 nmol/mg VLDL protein,inhibition of lipid peroxidation in membrane vesicles ([10]; 10.0 μM compound): 80%; comparative antioxidant potency versus Vitamin E and probucol ([10]; FIG. 12): significantly more active; antioxidant activity under atherosclerotic-like conditions of elevated membrane cholesterol ([10]; FIG. 13): increased; levels of lipid peroxidation inhibited ([10]; at concentrations as low as 10.0 μM): > 10^2 μM
vitamin E,–,95%,–,–,–,–,–,–,–,–,–,–,–,–,–,–,–,–
